The values that follow come from PubChem BioAssay (NCI).

Test systems include SNB-19 CNS; 786-0 renal; PC-3 prostate; BT-549 breast; MOLT-4 leukemia; UACC-62 melanoma; T-47D breast; NCI-H460 lung; KM12 colon; EKVX NSCLC.
What all share (assay): growth of human tumour cells (NCI), 48 h

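Following 48 hours of exposure in 96-well plates, responses at five concentrations were used to interpolate endpoints linearly. GI50 = concentration required for 50% inhibition of growth. TGI: concentration producing complete growth inhibition.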

As to `COc1cc(-c2cc(/C=C3\C(=O)Nc4ccccc43)[nH]n2)cc(OC)c1OC`, the GI50 in the assay with SNB-19 CNS was 4.13 µM; in the assay on 786-0 renal, 5.1 µM; in the assay with PC-3 prostate it was 2.14 µM; in the assay with BT-549 breast it was 2.1 µM; in the assay with MOLT-4 leukemia, 2.45 µM; with UACC-62 melanoma, 1.63 µM. Moreover, the values for the GI50 in the assay on T-47D breast, in the assay on NCI-H460 lung and in the assay on KM12 colon were 1.74 µM, 4.35 µM and 1.26 µM, respectively. Further, the TGI amounted to 32.5 µM in the assay with SNB-19 CNS; 20.2 µM with 786-0 renal; 10 µM in the assay on PC-3 prostate; 6.58 µM with BT-549 breast; 6.71 µM in the assay on MOLT-4 leukemia; 4.22 µM with UACC-62 melanoma. Besides, the TGI is 6.99 µM with T-47D breast, 19 µM in the assay on NCI-H460 lung and 10.7 µM with KM12 colon.

On to `COc1cc(Cl)c2c3c(c(C(=O)c4ccccc4)oc13)CCC2`, for which the TGI with SNB-19 CNS, with 786-0 renal, in the assay on EKVX NSCLC, in the assay on MOLT-4 leukemia, with UACC-62 melanoma and in the assay with NCI-H460 lung was greater than 100 µM in each case.

Turning to `CO[C@@]12C[C@H]3[C@@H]([C@@H](O)[C@@H](OC(=O)/C=C/c4ccccc4)[C@@]4(O)C(C)(C)CCC[C@]34C)[C@@H](C)C1=CC(=O)O2`, the GI50 was 16.1 µM in the assay with SNB-19 CNS; 24.8 µM with 786-0 renal; 5.13 µM in the assay on PC-3 prostate; 5.36 µM in the assay with EKVX NSCLC; 11.3 µM in the assay with BT-549 breast; greater than 100 µM with MOLT-4 leukemia. In addition, the GI50 is 1.55 µM with UACC-62 melanoma, 12.4 µM in the assay with NCI-H460 lung and 6.74 µM in the assay with KM12 colon. The TGI with SNB-19 CNS is greater than 100 µM; with 786-0 renal, greater than 100 µM; in the assay with PC-3 prostate it was 29.2 µM; in the assay on EKVX NSCLC it was 57.5 µM; in the assay on BT-549 breast, 27.9 µM; in the assay on MOLT-4 leukemia, greater than 100 µM. In addition, the TGI in the assay with UACC-62 melanoma was found to be 5.62 µM; in the assay with NCI-H460 lung it was 82.9 µM; in the assay on KM12 colon it was 28.6 µM.

Regarding `COc1cc2c([C@@H](OC(=O)c3ccccc3)c3ccc4c(c3)OCO4)nccc2c(OC)c1OC`, the TGI with SNB-19 CNS, in the assay with 786-0 renal, in the assay with EKVX NSCLC, in the assay on MOLT-4 leukemia, in the assay with UACC-62 melanoma and with NCI-H460 lung was greater than 100 µM each time.

As for `C/C1=C/C(=O)O[C@@H]2C[C@@H](CC[C@H](C)/C=C\C=C\CC1)O[C@@](OCCc1ccccc1)([C@@H]1CSC(=O)N1)C2`, the GI50 is 0.12 µM in the assay with SNB-19 CNS; 0.107 µM in the assay with 786-0 renal; 0.0754 µM with PC-3 prostate; 0.106 µM in the assay with EKVX NSCLC; 0.0404 µM in the assay with BT-549 breast; greater than 5.2 µM in the assay on MOLT-4 leukemia. The figures for the GI50 with UACC-62 melanoma, with NCI-H460 lung and in the assay with KM12 colon were 0.104 µM, 0.27 µM and 6.19 µM, respectively. Moreover, the TGI was greater than 17.5 µM in the assay with SNB-19 CNS; greater than 17.5 µM with 786-0 renal; greater than 17.5 µM in the assay on PC-3 prostate; greater than 17.5 µM in the assay with EKVX NSCLC; 0.113 µM in the assay with BT-549 breast; greater than 17.5 µM with MOLT-4 leukemia. Further, the TGI in the assay with UACC-62 melanoma, in the assay with NCI-H460 lung and with KM12 colon was greater than 17.5 µM each time.

Take `C#C[C@H](CCCC)OC(=O)N[C@H](C)c1ccccc1`: the TGI in the assay with SNB-19 CNS was greater than 100 µM; in the assay with 786-0 renal, greater than 100 µM; in the assay on EKVX NSCLC, greater than 100 µM; in the assay on MOLT-4 leukemia, 94.8 µM; in the assay on UACC-62 melanoma it was greater than 100 µM; with NCI-H460 lung, greater than 100 µM. The TGI in the assay with KM12 colon was greater than 100 µM.

`Cc1ccc(NC(=O)C2C(=O)N(c3ccc(C)c(C)c3)C(=O)/C2=N\NC(N)=S)cc1C` (stereo not drawn): the TGI in the assay with SNB-19 CNS, with 786-0 renal, with EKVX NSCLC, in the assay with MOLT-4 leukemia, in the assay with UACC-62 melanoma and in the assay on KM12 colon was greater than 100 µM each time.

For the molecule `O=C(O)/C(=C\c1ccccc1Cl)S(=O)(=O)c1ccccc1`, the TGI in the assay on SNB-19 CNS, with 786-0 renal, in the assay with MOLT-4 leukemia, in the assay with UACC-62 melanoma, in the assay on NCI-H460 lung and in the assay with KM12 colon was greater than 100 µM in each case.

Regarding `c1cc(-c2cn[nH]c2)cc(-c2cn[nH]c2)c1`, the TGI was greater than 100 µM with SNB-19 CNS; greater than 100 µM in the assay with 786-0 renal; 58.6 µM in the assay with EKVX NSCLC; greater than 100 µM with MOLT-4 leukemia; 35.6 µM in the assay with UACC-62 melanoma; greater than 100 µM in the assay on NCI-H460 lung. This molecule also returned a TGI in the assay with KM12 colon greater than 100 µM.

As to `CC1CCP(=O)(c2ccccc2)CC1` (stereo not drawn), the TGI in the assay on SNB-19 CNS, in the assay with 786-0 renal, with EKVX NSCLC, in the assay on MOLT-4 leukemia, with UACC-62 melanoma and in the assay on NCI-H460 lung was greater than 100 µM in each case. The molecule also gave a TGI in the assay on KM12 colon greater than 100 µM.

For the molecule `Cn1c2ccccc2c(=O)c2c([N+](=O)[O-])ccc(NCCN)c21`, the TGI is 27.8 µM with SNB-19 CNS; 20.6 µM with 786-0 renal; 31 µM in the assay on EKVX NSCLC; 7.95 µM in the assay with MOLT-4 leukemia; 29.6 µM in the assay with UACC-62 melanoma; 22.8 µM in the assay with NCI-H460 lung. In the assay on KM12 colon, this molecule yielded a TGI of 19.7 µM.

With `COc1cc(NCC2COc3c(ccc(OC)c3OC)C2=O)c([N+](=O)[O-])cc1OC` (stereo not drawn), the TGI with SNB-19 CNS, with 786-0 renal, in the assay with PC-3 prostate, with EKVX NSCLC, in the assay with MOLT-4 leukemia and in the assay with UACC-62 melanoma was greater than 100 µM in each case. In addition, the TGI in the assay on T-47D breast, in the assay on NCI-H460 lung and with KM12 colon was greater than 100 µM throughout.

With `CC(=O)[C-](C(C)=O)c1ccccc1.CC(=O)[C-](C(C)=O)c1ccccc1.CC[O-].CC[O-].[Ti+4]`, the GI50 with SNB-19 CNS, with 786-0 renal, in the assay with EKVX NSCLC, with MOLT-4 leukemia, in the assay with UACC-62 melanoma and in the assay with KM12 colon was greater than 100 µM throughout. The TGI with SNB-19 CNS, with 786-0 renal, in the assay with EKVX NSCLC, in the assay with MOLT-4 leukemia, in the assay on UACC-62 melanoma and with KM12 colon was greater than 100 µM throughout.

Regarding `COc1ccc(C(=O)C(C(=O)C(=O)Nc2nccs2)c2ccc(OC)cc2)cc1` (stereo not drawn), the TGI with SNB-19 CNS, in the assay on 786-0 renal, in the assay with MOLT-4 leukemia, in the assay with UACC-62 melanoma, with NCI-H460 lung and with KM12 colon was greater than 100 µM throughout.
